From US20040072770A1, “Methods for specifically inhibiting histone deacetylase-7 and 8” (priority 2002, published 2004) come the findings set out here.

Structures are written as SMILES.

Holding throughout (type): in vivo
In test [1] the test system is pancreatic carcinoma Panc-1 tumors. Briefly: Tumor growth in a mouse model, Panc-1. To be noted: BALB/c nude mice, vs vehicle-treated. The procedure:
(§1) Female BALB/c nude mice are obtained from Charles River Laboratories (Charles River, N.Y.) and used at age 8-10 weeks. Human tumor cells (2×10^6, colon carcinoma cells HCT116 or SW48, lung carcinoma cells A549, pancreatic carcinoma Panc-1, ovarian carcinoma cells ES2, or prostate carcinoma cells Du145) are injected subcutaneously in the animal's flank and allowed to form solid tumors. Tumor fragments are serially passaged a minimum of three times, then approximately 30 mg tumor fragments are implanted subcutaneously through a small surgical incision under general anaesthesia. Small molecule inhibitor administration by intraperotineal or oral administration was initiated when the tumors reached a volume of 100 mm^3. For intraperotineal administration, small molecule inhibitors of HDAC-7, HDAC-8 or both, or in combination with small molecule inhibitors of HDAC-1 (20-60 mg/kg body weight/day) are dissolved in 100% DMSO and administered daily by injection. For oral administration, small molecule inhibitors of HDAC (60 mg/kg body weight) are dissolved in saline acidified with 0.2 N HCl. Tumor volumes are monitored twice weekly up to 20 days. Each experimental group contains at least 6-8 animals. Percentage inhibition is calculated using volume of tumor from vehicle-treated mice as controls. […]

Test [2] relates to colon carcinoma cells SW48 tumors. Briefly: Tumor growth in a mouse model, SW48. The note with it: (6,0,O): oral; BALB/c nude mice; vs vehicle-treated. Here is the method: as §1
In test [3] the test system is prostate carcinoma cells Du145 tumors. Briefly: Tumor growth in a mouse model, Du145. The note with it: (60,I): 60 mg/kg body weight/day, intraperitoneal; BALB/c nude mice; vs vehicle-treated. The procedure:
as §1

As for `COc1ccc(NCc2ccc(C(=O)Nc3ccccc3N)cc2)cc1OC` [Compound 17, N-(2-Aminophenyl)-4-[(3,4-dimethoxyphenylamino)-methyl]-benzamide], the “% of Inhibition of Tumor Growth in Vivo PANC-1” value in test [1] ((60,O): 60 mg/kg body weight, oral) is 78(60,O) %. Also, in test [2], the “% of Inhibition of Tumor Growth in Vivo SW 48” value was 68(6,0,O) %. The “% of Inhibition of Tumor Growth in Vivo DU 145” value in test [3] is given as >50(60,I) %.

`COc1ccc(-c2ccnc(NCc3ccc(C(=O)Nc4ccccc4N)cc3)n2)cc1OC` [Compound 21, N-(2-Amino-phenyl)-4-{[4-(3,4-dimethoxy-phenyl)-pyrimidin-2-ylamino]-methyl}-benzamide]: the “% of Inhibition of Tumor Growth in Vivo PANC-1” value in test [1] ((3,0,I): intraperitoneal) was >50(3,0,I) %.
